Consider 9 compounds from PubChem BioAssay (NCI).

Some test systems named below: MALME-3M melanoma; U251 CNS; DMS 114 small cell lung; NCI-H460 lung; UO-31 renal; HOP-18 NSCLC; DMS 273 small cell lung; OVCAR-8 ovarian; HCT-15 colon; KM20L2 colon; SW-620 colon; SR leukemia.
Holding throughout (assay): growth of human tumour cells (NCI), 48 h

Where “and” joins values, the source holds several entries; their conditions need not be identical. Identical values can stand only once.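 All cell lines were grown in 96-well plates and treated with compound for 48 hours. Definition used: TGI = concentration required for complete inhibition of growth.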

`Cc1ccc(S(=O)(=O)C(C#N)c2nc3ccccc3nc2-n2cccn2)cc1` (stereo not drawn): the TGI with MALME-3M melanoma, in the assay with U251 CNS, with DMS 114 small cell lung, in the assay with NCI-H460 lung, in the assay on UO-31 renal and in the assay on HOP-18 NSCLC was > 100 µM throughout. For the same compound, the TGI with DMS 273 small cell lung, with OVCAR-8 ovarian and in the assay with HCT-15 colon was > 100 µM each time.
As for `CC(C)(CN1CCCCC1)C(=O)CC(SCCS(=O)(=O)O)c1ccc(Br)cc1` (stereo not drawn), the TGI with MALME-3M melanoma came out at 3.38 µM; in the assay with U251 CNS, 3.16 µM; with KM20L2 colon, 3.53 µM; in the assay on DMS 114 small cell lung it was 3.46 µM; with NCI-H460 lung, 4.48 µM; with UO-31 renal it was 2.99 µM. For the same compound, the TGI in the assay on HOP-18 NSCLC amounted to 3.57 µM; in the assay on DMS 273 small cell lung it was 3.58 µM; in the assay on OVCAR-8 ovarian it was 5.96 µM; in the assay with HCT-15 colon it was 6.91 µM.
In the case of `CC(=O)O[C@]12CCCCCCC1C1(O)C(O)CCC[C@H]12` (stereo partly drawn), the TGI in the assay on SW-620 colon, in the assay with MALME-3M melanoma, in the assay on U251 CNS, in the assay on KM20L2 colon, with DMS 114 small cell lung and in the assay on NCI-H460 lung was > 100 µM in each case. Moreover, the TGI in the assay with UO-31 renal, in the assay with HOP-18 NSCLC, in the assay on DMS 273 small cell lung, in the assay on SR leukemia, in the assay on OVCAR-8 ovarian and in the assay on HCT-15 colon was > 100 µM in each case.
With `Cc1ccc2c(c1)c(=O)c1c(NCCN(C)C)ccc3nnn2c31`, the TGI with SW-620 colon was found to be 18 µM; with MALME-3M melanoma it was 18 µM; in the assay with U251 CNS, 16.9 µM; in the assay with KM20L2 colon it was 16 µM; with DMS 114 small cell lung, 18.5 µM; in the assay on NCI-H460 lung, 10.2 µM. Besides, the TGI amounted to 23.9 µM in the assay on UO-31 renal; 50 µM with HOP-18 NSCLC; 7.67 µM with SR leukemia; 17.7 µM with OVCAR-8 ovarian; 20.3 µM with HCT-15 colon.
On to `CCCCN(CCCC)C(=NCc1ccccc1)NC#N`, for which the TGI stood at 31 µM in the assay with SW-620 colon; 87.4 µM with MALME-3M melanoma; 35.7 µM with U251 CNS; 52.2 µM in the assay on KM20L2 colon; 26.9 µM in the assay on NCI-H460 lung; 25.3 µM in the assay with UO-31 renal. In addition, the TGI is > 100 µM in the assay with HOP-18 NSCLC, 75.7 µM in the assay with DMS 273 small cell lung, > 100 µM with OVCAR-8 ovarian and 28.2 µM in the assay with HCT-15 colon.
Regarding `NC1=NS(=O)(=O)N=C(N)C1=Cc1ccc([N+](=O)[O-])o1`, the TGI was 32.7 µM in the assay on SW-620 colon; 29.7 µM with MALME-3M melanoma; > 100 µM in the assay on U251 CNS; 31.3 µM in the assay on KM20L2 colon; 31.9 µM with DMS 114 small cell lung; 35.9 µM in the assay on NCI-H460 lung. Besides, the TGI with UO-31 renal was found to be 31.8 µM; with HOP-18 NSCLC, 31.8 µM; with DMS 273 small cell lung, 30.3 µM; in the assay with SR leukemia, 29.2 µM; in the assay with OVCAR-8 ovarian, 33.3 µM; in the assay on HCT-15 colon, 30.7 µM.
Take `Brc1ccc(N2C[N+](c3ccc(Br)cc3)=NC(c3ccccc3)=N2)cc1`: the TGI was 40.9 µM and > 100 µM with SW-620 colon; 31.2 µM and > 100 µM in the assay on MALME-3M melanoma; 33.5 µM and > 100 µM in the assay with U251 CNS; 33.8 µM and > 100 µM in the assay on KM20L2 colon; 34.7 µM and 97.8 µM in the assay on DMS 114 small cell lung; 29.5 µM and > 100 µM in the assay on NCI-H460 lung. Moreover, the TGI is 27.6 µM and > 100 µM with UO-31 renal; 28 µM and > 100 µM with HOP-18 NSCLC; 21.1 µM and > 100 µM with DMS 273 small cell lung; 41.9 µM and > 100 µM in the assay with OVCAR-8 ovarian; 33.5 µM and > 100 µM in the assay with HCT-15 colon.
With `O=C1CCC2(CCC(=O)NC2=O)C(=O)N1`, the TGI in the assay with SW-620 colon, in the assay with MALME-3M melanoma, in the assay with U251 CNS, with KM20L2 colon, in the assay with DMS 114 small cell lung and in the assay on NCI-H460 lung was > 100 µM in each case. The TGI in the assay with UO-31 renal, in the assay with DMS 273 small cell lung, in the assay on SR leukemia, with OVCAR-8 ovarian and in the assay on HCT-15 colon was > 100 µM in each case.
`O=C(c1cccs1)N(C(=S)N1CCN(c2ccccc2)CC1)c1ccccc1`: the TGI in the assay on SW-620 colon, in the assay with MALME-3M melanoma, in the assay on U251 CNS, with KM20L2 colon, with DMS 114 small cell lung and in the assay with NCI-H460 lung was > 100 µM in each case. The TGI in the assay with UO-31 renal, with HOP-18 NSCLC, with DMS 273 small cell lung, in the assay on SR leukemia, in the assay with OVCAR-8 ovarian and with HCT-15 colon was > 100 µM in each case.
